# Earlier results as cited in patent US11185594B2, “(Anti-HER2 antibody)-drug conjugate” (DAIICHI SANKYO COMPANY, LIMITED, priority 2014, dated 2021).
# Assays:
# topoisomerase I = molecular target: T1, topoisomerase I (Homo sapiens, UniProt P11387); settings: compared with SN-38 and topotecan
# T1 sequence (P11387 1-765): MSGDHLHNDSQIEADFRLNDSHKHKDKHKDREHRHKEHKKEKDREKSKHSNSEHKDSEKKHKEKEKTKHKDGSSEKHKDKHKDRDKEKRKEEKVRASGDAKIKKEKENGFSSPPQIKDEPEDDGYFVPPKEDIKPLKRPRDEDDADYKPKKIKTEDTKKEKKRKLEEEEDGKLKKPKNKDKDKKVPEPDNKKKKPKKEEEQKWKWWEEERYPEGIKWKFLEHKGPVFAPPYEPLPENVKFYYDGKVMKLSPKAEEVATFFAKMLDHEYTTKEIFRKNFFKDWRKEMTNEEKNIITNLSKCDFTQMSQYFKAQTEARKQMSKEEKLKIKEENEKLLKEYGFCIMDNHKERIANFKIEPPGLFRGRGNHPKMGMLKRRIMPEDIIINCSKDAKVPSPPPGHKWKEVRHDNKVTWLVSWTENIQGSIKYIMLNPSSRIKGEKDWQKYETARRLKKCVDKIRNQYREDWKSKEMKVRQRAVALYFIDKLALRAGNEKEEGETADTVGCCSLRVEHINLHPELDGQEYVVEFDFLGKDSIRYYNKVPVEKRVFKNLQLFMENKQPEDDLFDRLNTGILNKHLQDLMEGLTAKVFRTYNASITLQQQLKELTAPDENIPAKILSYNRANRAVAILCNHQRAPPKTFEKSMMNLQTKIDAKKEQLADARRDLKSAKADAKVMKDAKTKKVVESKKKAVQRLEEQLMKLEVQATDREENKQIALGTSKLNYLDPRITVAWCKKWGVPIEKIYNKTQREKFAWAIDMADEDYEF
# human tumor = human tumor subcutaneously transplanted mouse model
compound,measurement,setting,value
"CC[C@@]1(O)C(=O)OCc2c1cc1n(c2=O)Cc2c-1nc1cc(F)c(C)c3c1c2[C@@H](N)CC3 [exatecan, (1S,9S)-1-amino-9-ethyl-5-fluoro-2,3-dihydro-9-hydroxy-4-methyl-1H,12H-benzo[de]pyrano[3′,4′:6,7]indolizino[1,2-b]quinoline-10,13(9H,15H)-dione]",in vitro cytocidal activity,various cancer cells; against various cancer cells,higher in vitro cytocidal activity was confirmed
same,effect against resistant cancer cells,various cancer cells; cancer cells resistant to SN-38 or the like due to expression of P-glycoprotein,confirmed to have the effect
same,inhibitory activity on topoisomerase I,topoisomerase I,higher than SN-38
same,antitumor effect,human tumor,potent antitumor effect
